According to patent US20260232767A1, “INTERLEUKIN-23 RECEPTOR ANTAGONIST PEPTIDES FOR USE IN THE TREATMENT OF PSORIASIS” (Janssen Pharmaceutica NV, priority 2023, published 2026):

Tested on: subjects with moderate-to-severe plaque psoriasis
Assay: Elevated liver function tests
Format: in vivo, human
Settings: through Week 56
[1] = 25 mg BID, at least 1 post-baseline value
[2] = 25 mg BID, baseline ≤ULN and at least 1 post-baseline value
[3] = 25 mg QD, at least 1 post-baseline value
[4] = 25 mg QD, baseline ≤ULN and at least 1 post-baseline value
[5] = 50 mg QD, at least 1 post-baseline value
[6] = 50 mg QD, baseline ≤ULN and at least 1 post-baseline value
[7] = 100 mg BID, at least 1 post-baseline value
[8] = 100 mg BID, baseline ≤ULN and at least 1 post-baseline value
[9] = 100 mg QD, at least 1 post-baseline value
[10] = 100 mg QD, baseline ≤ULN and at least 1 post-baseline value
[11] = Combined, at least 1 post-baseline value
[12] = Combined, baseline ≤ULN and at least 1 post-baseline value
[13] = Placebo → 100 mg QD, at least 1 post-baseline value
[14] = Placebo → 100 mg QD, baseline ≤ULN and at least 1 post-baseline value

CC(=O)NCCCC[C@@H]1NC(=O)[C@H](Cc2c[nH]c3c(C)cccc23)NC(=O)[C@H]([C@@H](C)O)NC(=O)[C@H](CC(N)=O)NC(=O)[C@@H](NC(C)=O)C(C)(C)SSC(C)(C)[C@@H](C(=O)N[C@@H](Cc2ccc(OCCN)cc2)C(=O)N[C@@H](Cc2ccc3ccccc3c2)C(=O)NC2(C(=O)N[C@@H](CCC(=O)O)C(=O)N[C@@H](CC(N)=O)C(=O)N[C@@H](Cc3cccnc3)C(=O)N(C)CC(N)=O)CCOCC2)NC1=O [IL-23 receptor antagonist peptide, Ac-[Pen]*-N-T-[W(7-Me)]-[Lys(Ac)]-[Pen]*-Phe[4-(2-aminoethoxy)]-[2-Nal]-[THP]-E-N-[3-Pal]-Sarc-NH2 (*[Pen]-[Pen]* formdisulfidebond)]
5: Subjects with ALT ≥3 × ULN [7]
7: Subjects with ALT >1 × ULN [3]
4: Subjects with AST >1 × ULN [8]
9: Subjects with AST >1 × ULN [9]
0: Subjects with Total Bilirubin >2 × ULN and either AST or ALT ≥3 × ULN at the same timepoint (25 mg BID) | Subjects with ALT ≥5 × ULN [1] | Subjects with ALT ≥10 × ULN [1] | Subjects with ALT ≥20 × ULN [1] | Subjects with AST ≥5 × ULN [1] | Subjects with AST ≥10 × ULN [1] | Subjects with AST ≥20 × ULN [1] | Subjects with ALT ≥5 × ULN [2] | Subjects with ALT ≥10 × ULN [2] | Subjects with ALT ≥20 × ULN [2] | Subjects with AST ≥5 × ULN [2] | Subjects with AST ≥10 × ULN [2] | Subjects with AST ≥20 × ULN [2] | Subjects with Total Bilirubin >2 × ULN and either AST or ALT ≥3 × ULN at the same timepoint (25 mg QD) | Subjects with ALT ≥10 × ULN [3] | Subjects with ALT ≥20 × ULN [3] | Subjects with AST ≥5 × ULN [3] | Subjects with AST ≥10 × ULN [3] | Subjects with AST ≥20 × ULN [3] | Subjects with ALT ≥10 × ULN [4] | Subjects with ALT ≥20 × ULN [4] | Subjects with AST ≥5 × ULN [4] | Subjects with AST ≥10 × ULN [4] | Subjects with AST ≥20 × ULN [4] | Subjects with Total Bilirubin >2 × ULN and either AST or ALT ≥3 × ULN at the same timepoint (50 mg QD) | Subjects with ALT ≥3 × ULN [5] | Subjects with ALT ≥5 × ULN [5] | Subjects with ALT ≥10 × ULN [5] | Subjects with ALT ≥20 × ULN [5] | Subjects with AST ≥3 × ULN [5] | Subjects with AST ≥5 × ULN [5] | Subjects with AST ≥10 × ULN [5] | Subjects with AST ≥20 × ULN [5] | Subjects with ALT ≥3 × ULN [6] | Subjects with ALT ≥5 × ULN [6] | Subjects with ALT ≥10 × ULN [6] | Subjects with ALT ≥20 × ULN [6] | Subjects with AST ≥3 × ULN [6] | Subjects with AST ≥5 × ULN [6] | Subjects with AST ≥10 × ULN [6] | Subjects with AST ≥20 × ULN [6] | Subjects with Total Bilirubin >2 × ULN and either AST or ALT ≥3 × ULN at the same timepoint (100 mg BID) | Subjects with ALT ≥5 × ULN [7] | Subjects with ALT ≥10 × ULN [7] | Subjects with ALT ≥20 × ULN [7] | Subjects with AST ≥10 × ULN [7] | Subjects with AST ≥20 × ULN [7] | Subjects with ALT ≥5 × ULN [8] | Subjects with ALT ≥10 × ULN [8] | Subjects with ALT ≥20 × ULN [8] | Subjects with AST ≥10 × ULN [8] | Subjects with AST ≥20 × ULN [8] | Subjects with Total Bilirubin >2 × ULN and either AST or ALT ≥3 × ULN at the same timepoint (100 mg QD) | Subjects with ALT ≥5 × ULN [9] | Subjects with ALT ≥10 × ULN [9] | Subjects with ALT ≥20 × ULN [9] | Subjects with AST ≥5 × ULN [9] | Subjects with AST ≥10 × ULN [9] | Subjects with AST ≥20 × ULN [9] | Subjects with ALT ≥5 × ULN [10] | Subjects with ALT ≥10 × ULN [10] | Subjects with ALT ≥20 × ULN [10] | Subjects with AST ≥5 × ULN [10] | Subjects with AST ≥10 × ULN [10] | Subjects with AST ≥20 × ULN [10] | Subjects with Total Bilirubin >2 × ULN and either AST or ALT ≥3 × ULN at the same timepoint (Combined) | Subjects with ALT ≥10 × ULN [11] | Subjects with ALT ≥20 × ULN [11] | Subjects with AST ≥10 × ULN [11] | Subjects with AST ≥20 × ULN [11] | Subjects with ALT ≥10 × ULN [12] | Subjects with ALT ≥20 × ULN [12] | Subjects with AST ≥10 × ULN [12] | Subjects with AST ≥20 × ULN [12] | Subjects with Total Bilirubin >2 × ULN and either AST or ALT ≥3 × ULN at the same timepoint (Placebo → 100 mg QD) | Subjects with ALT ≥5 × ULN [13] | Subjects with ALT ≥10 × ULN [13] | Subjects with ALT ≥20 × ULN [13] | Subjects with AST ≥10 × ULN [13] | Subjects with AST ≥20 × ULN [13] | Subjects with ALT ≥5 × ULN [14] | Subjects with ALT ≥10 × ULN [14] | Subjects with ALT ≥20 × ULN [14] | Subjects with AST ≥10 × ULN [14] | Subjects with AST ≥20 × ULN [14]
